Experimental data from ChEMBL document CHEMBL1158869, “Bioactive iridoids and a new lignan from Allamanda cathartica and Himatanthus fallax from the Suriname rainforest” (J Nat Prod, 1997).
Values after ≈ are worked out from the molar mass of the structure shown.

Experiments:
[1] = test system: M109; experiment: Cytotoxicity against mouse M109 cells; format: functional, cell-based
[2] = test system: Saccharomyces cerevisiae; experiment: Antimicrobial activity against yeast Sc7; format: functional

Compound	IC50 [1]	IC12 [2]
C/C=C1\C(=O)O[C@]23C=C[C@@H]4C(C(=O)OC)=CO[C@H](O[C@@H]12)[C@@H]43 [ISOPLUMERICIN]	25 µg/mL (≈ 86.1 µM)	42 µg/mL
C/C=C1/C(=O)O[C@]23C=C[C@@H]4C(C(=O)OC)=CO[C@H](O[C@@H]12)[C@@H]43 [PLUMERICIN]	100 µg/mL (≈ 345 µM)	74 µg/mL
